PMC8591741 (ACS Medicinal Chemistry Letters, 2021)
Entries after “also recorded” stand apart in the source; their conditions may differ.

Key:
HCV gt1a replicon = experiment: HCV replicon assay, gt1a; format: cell-based, hepatitis C virus
HCV gt1b replicon = experiment: HCV replicon assay, gt1b; format: cell-based, hepatitis C virus; conditions: for potency against gt1b compared with daclatasvir (1), in words: vs 1

SMILES: COC(=O)N[C@H]1CCC[C@@H]2CC[C@@H](c3ncc(-c4ccc(-c5ccc(-c6cnc([C@@H]7CCCN7C(=O)[C@@H](NC(=O)OC)C(C)C)[nH]6)cc5)cc4)[nH]3)N2C1=O [Compound 5]
- times less potent against gt1a than 1 (HCV gt1a replicon; vs daclatasvir (1)): ~6
- potency against gt1b compared with daclatasvir (1), in words (HCV gt1b replicon): nearly equipotent; also recorded: essentially equipotent

SMILES: COC(=O)N[C@H](C(=O)N1CCC[C@H]1c1ncc(-c2ccc(-c3ccc(-c4cnc([C@@H]5CC[C@H]6CCC[C@@H](NC(=O)OC)C(=O)N65)[nH]4)cc3)cc2)[nH]1)C(C)C [Compound 4]
- gt1a potency regained compared with 2 (HCV gt1a replicon; vs 2): ~27 fold
- gt1b potency regained compared with 2 (HCV gt1b replicon; vs 2): ~2 fold

SMILES: COC(=O)N[C@H](C(=O)N1CC2(C[C@H]1c1ncc(-c3ccc(-c4ccc(-c5cnc([C@@H]6CC[C@H]7CCC[C@H](N(C)C)C(=O)N76)[nH]5)cc4)cc3)[nH]1)OCCO2)C(C)C [Compound 13]
- less potent than 5 against gt1a (HCV gt1a replicon; vs 5): 16 fold

SMILES: COC(=O)N[C@H]1CCC[C@H]2CC[C@@H](c3ncc(-c4ccc(-c5ccc(-c6cnc([C@@H]7CCCN7C(=O)[C@@H](NC(=O)OC)C(C)C)[nH]6)cc5)cc4)[nH]3)N2C1=O [Compound 2]
- potency decrease against gt1a compared with daclatasvir (1) (HCV gt1a replicon; vs 1): ~221 fold
- potency against gt1b compared with daclatasvir (1), in words (HCV gt1b replicon): decreased slightly
